In patent US9139502B2, “Use of an urushiol compound in preparation of pharmaceutical compositions for inhibiting Smad3 phosphorylation” (Southern Hospital, Southern Medical University, priority 2013, dated 2015):

Assays:
Smad2 phosphorylation = assay: Western blot of TGF-β1-induced Smad2 phosphorylation in vitro; assay type: cell-based, rat
Protocol: NRK52E and NRK49F cells were cultured in DMEM-Ham's medium supplemented with 10% fetal bovine serum. The cells reached at approximately 50% confluence were used for in vitro experiments. Cells were serum-starved for 12 h, and randomized into 6 groups: (1) Controls; (2) GQ-5 only; (3) TGF-β1 only; (4) TGF-β1+GQ-5 0.1 μM; (5) TGF-β1+GQ-5 0.5 μM; (6) TGF-β1+GQ-5 2.5 μM.
(§1) (2) GQ-5 only: pre-treated with GQ-5 (2.5 μM) for 1 h, followed with DMEM for 1 h
(§2) (3) TGF-β1 only: pre-treated with DMSO (0.1%) for 1 h, followed with TGF-β1 (10 ng/ml) for 1 h
(4) TGF-β1+GQ-5 0.1 μM: pre-treated with GQ-5 (0.1 μM) for 1 h, followed with TGF-β1 (10 ng/ml) for 1 h
(5) TGF-β1+GQ-5 0.5 μM: pre-treated with GQ-5 (0.5 μM) for 1 h, followed with TGF-β1 (10 ng/ml) for 1 h
(6) TGF-β1+GQ-5 2.5 μM: pre-treated with GQ-5 (2.5 μM) for 1 h, followed with TGF-β1 (10 ng/ml) for 1 h.
GQ-5 was dissolved in DMSO. Cells were treated as described. Cell lysates were immunoblotted with antibodies against phospho-Smad3, Smad3, phospho-Smad2, Smad2.
NRK52E cells were cultured in DMEM-Ham's medium supplemented with 10% fetal bovine serum. The cells reached at approximately 50% confluence were used for in vitro experiments. Cells were serum-starved for 12 h, and randomized into 8 groups: (1) Controls; (2) GQ-5 only; (3) TGF-β1 0.5 h; (4) TGF-β1 0.5 h+GQ-5; (5) TGF-β1 1.0 h; (6) TGF-β1 1.0 h+GQ-5; (7) TGF-β1 3.0 h; (8) TGF-β1 3.0 h+GQ-5; […]

PI3K = assay: Western blot of TGF-β1-induced PI3K phosphorylation in vitro; assay type: cell-based, rat; details: NRK52E and NRK49F cells, GQ-5 2.5 nM pre-treated 1 h, TGF-β1 10 ng/ml 1 h
Protocol: (§3) NRK52E and NRK49F cells were cultured in DMEM-Ham's medium (Gibco, Life Techologies, NY, USA) supplemented with 10% fetal bovine serum (Gibco, Life Techologies, NY, USA). The cells reached at approximately 50% confluence were used for in vitro experiments. Cells were serum-starved for 12 h, and randomized into 4 groups: (1) Controls; (2) GQ-5 only; (3) TGF-β1 only; (4) TGF-β1+GQ-5
as §1, §2
(§4) (4) TGF-β1+GQ-5: pre-treated with GQ-5 (2.5 nM) for 1 h, followed with TGF-β1 (10 ng/ml) for 1 h
(§5) GQ-5 was dissolved in DMSO. Cells were treated as described. cell lysates were immunoblotted with antibodies against Smad4, Smad7, phospho-p38, p38, phospho-PI3K, PI3K, phosphor-ERK, and ERK.

[1] = target: interaction of Smad3 with TβRI (Rattus norvegicus, UniProt P84025); assay: Immunoprecipitation of Smad3 with TβRI in vitro; assay type: cell-based; details: NRK52E cells, GQ-5 2.5 nM pre-treated 1 h, TGF-β1 10 ng/ml 1 h
Protocol: NRK52E cells were cultured in DMEM-Ham's medium supplemented with 10% fetal bovine serum. The cells reached at approximately 50% confluence were used for in vitro experiments. Cells were serum-starved for 12 h, and randomized into 4 groups: (1) Controls; (2) GQ-5 only; (3) TGF-β1 only; (4) TGF-β1+GQ-5
(2) GQ-5 only: pre-treated with GQ-5 (2.5 nM) for 1 h, followed with DMEM for 1 h
(3) TGF-β1 only: pre-treated with DMSO for 1 h, followed with TGF-β1 (10 ng/ml) for 1 h
as §4
GQ-5 was dissolved in DMSO. Cells were treated as described. Cell lysates were collected for immunoprecipitation to examine the interaction among TGFβ type I receptor (TβRI), TβRII, Smad3 and Smad2.

Smad4 = assay: Western blot of Smad4 expression in UUO kidneys; assay type: in vivo, rat; details: UUO rats, GQ-5 40 mg/kg daily i.p. right after UUO, sacrificed day 14
Protocol: Male Sprague-Dawley rats with body weight 200 to 250 g were randomized into 3 groups (n=6 in each group): (1) sham operated rats; (2) UUO rats; (3) UUO+GQ-5 rats.
GQ-5 was dissolved in 5% propylene glycol.
(3) UUO+GQ-5 rats: daily intraperitoneal injection of GQ-5 (40 mg/kg body weight) right after UUO;
UUO was performed using an established protocol as described. GQ-5 was dissolved in 5% propylene glycol. Rats were administrated with GQ-5 as described before. All the rats were sacrificed 14 days after UUO. Western blot analyses were performed to examine the Smad4, Smad7 expression and p38, PI3K, ERK phosphorylation.

Smad3 = assay: Immunofluorescence staining of TGF-β1-induced Smad3 nuclear translocation; assay type: cell-based, rat; details: NRK52E cells, GQ-5 2.5 μM pre-treated 1 h, TGF-β1 10 ng/ml 2 h
Protocol: NRK52E cells were cultured in DMEM-Ham's medium supplemented with 10% fetal bovine serum. The cells reached at approximately 50% confluence were used for in vitro experiments. Cells were serum-starved for 12 h, and randomized into 3 groups: (1) Controls; (2) TGF-β1 only; (3) TGF-β1+GQ-5.
(2) TGF-β1 only: pre-treated with DMSO for 1 h, followed with TGF-β1 (10 ng/ml) for 2 h
(3) TGF-β1+GQ-5: pre-treated with GQ-5 (2.5 μM) for 1 h, followed with TGF-β1 (10 ng/ml) for 2 h
GQ-5 was dissolved in DMSO. Cells were treated as described Immunofluorescence staining was performed to examine the nuclear translocation of Smad2, Smad3, and Smad4.

p38 = assay: Western blot of TGF-β1-induced p38 phosphorylation in vitro; assay type: cell-based, rat; details: NRK52E and NRK49F cells, GQ-5 2.5 nM pre-treated 1 h, TGF-β1 10 ng/ml 1 h
Protocol: as §3, §1, §2, §4, §5

Sequence of interaction of Smad3 with TβRI (P84025 whole entry): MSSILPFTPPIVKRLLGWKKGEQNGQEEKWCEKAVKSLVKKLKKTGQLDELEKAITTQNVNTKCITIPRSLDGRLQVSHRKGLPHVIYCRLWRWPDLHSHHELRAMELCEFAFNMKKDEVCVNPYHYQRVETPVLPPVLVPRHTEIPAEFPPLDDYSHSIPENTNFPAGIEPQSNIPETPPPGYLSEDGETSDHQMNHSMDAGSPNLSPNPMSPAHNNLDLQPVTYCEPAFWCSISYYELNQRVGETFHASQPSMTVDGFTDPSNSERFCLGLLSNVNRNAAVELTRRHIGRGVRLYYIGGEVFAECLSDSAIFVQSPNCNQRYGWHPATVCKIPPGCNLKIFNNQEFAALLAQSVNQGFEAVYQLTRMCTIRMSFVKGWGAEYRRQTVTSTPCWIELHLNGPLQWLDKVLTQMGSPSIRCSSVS

CCCCCC/C=C\CCCCCCCc1cccc(O)c1O [GQ-5, 3-[(Z)-pentadec-8-enyl]catechol]
TGF-β1-induced Smad2 phosphorylation (Smad2 phosphorylation; NRK52E and NRK49F cells, GQ-5 0.1, 0.5, 2.5 μM pre-treated 1 h, TGF-β1 10 ng/ml 1 h): did not affect | TGF-β1-induced Smad2 phosphorylation, time course (Smad2 phosphorylation; NRK52E cells, GQ-5 2.5 μM pre-treated 1 h, TGF-β1 10 ng/ml 0.5, 1.0, 3.0 h): did not affect | TGF-β1-induced phosphorylation of PI3K (PI3K): did not affect | interaction of Smad3 with TβRI [1]: significantly blocked | expression of Smad4 (Smad4): did not affect | TGF-β1-induced Smad3 nuclear translocation (Smad3): significantly reduced | TGF-β1-induced phosphorylation of p38 (p38): did not affect
